The source of these data is US5637582A, “Peripheral circulation improving agent” (priority 1992, dated 1997).

In data set [1] the test system is hind leg edema. Kind of data set: Hind leg frostbite model: model of Raynaud's disease (Experimental Example 7). It counts as in vivo, male SD rat. To be noted: for % Inhibition of edema / Edema: 30 mg/kg, orally twice a day for 6 days; for edema inhibition activity: rat hind leg frostbite model, in words. Here is the method: (Hind leg frostbite model: Model of Raynaud's disease)
Left hind leg of male SD rat (one group: 3 to 5 rats) was dipped in dry ice-ethanol for 2 seconds, and after 30 minutes, 30 mg/kg of a test compound dissolved in pure water was administered to the rat and then orally administered twice a day for 6 days continuously. At the final day of the experiment, volumes of both hind legs (below ankle joint) of the rat were measured by a water substitution method and an edema ratio was calculated from the following equation. Also, an inhibition ratio of the test compound administered group was obtained by comparing the edema ratio of the group in which the test compound was not administered. [formula]
The present model is disclosed, for example, in Hayashi et al, "Pharmacological Studies on Niceritrol (10), The Effects on Experimental Models of Peripherally Circulatory Insufficiency", Applied Pharmacology, 24 (6): 859-864 (1982), noting particularly the section "2. Effect on an experimental frostbite model" on page 860.

In data set [2] the test system is femoral artery. As to the kind of experiment: Femoral arterial blood flow, hind leg cooling model of Raynaud's disease (Experimental Example 5). It counts as in vivo, male SD rat. Here is the method: (Lower limbs peripheral circulation disorder model due to hind leg cooling: Model of Raynaud's disease)
A catheter was inserted into left common carotid artery of a male SD rat (one group consisting of 5 rats) under anesthesia, and the arterial blood pressure was measured with a standard pressure transducer (manufactured by Nihon Koden. TP-200T, trade name) through a catheter attached to the artery. After isolating the left femoral artery from the peripheral connective tissue, a flow probe (HDP 10-20R: F 1.0 mm) of a Doppler blood flow meter (manufactured by Crystal Biotec Co., PD20, trade name) was attached thereto and was connected to the Doppler blood flow meter to measure the artery blood flow. After the operation, at the time that the state became stable, the left hind leg was exposed to a perfused solution at 10° C. to decrease the femoral arterial blood flow. After 30 minutes, 1 ml/kg of a 0.9% NaCl solution or 300 μg/kg of the test compound A was intravenously administered and the state was observed. In the case of Beraprost Na, continuous injection in an amount of […] was carried out after 30 minutes from cooling. The compounds to be used were each dissolved in a 0.9% NaCl solution.
The present model is disclosed, for example, in Nishio et al, "Effect of Beraprost Sodium on Peripheral Circulatory Disturbances Induced by Various Stimuli", Arzneim.-Forsch./Drug Res., 39 (II), Nr. 10 (1989), pp. 1229-1234. Note particularly the section "2.4. Sphygmometry in rat hind paw", at page 1230.

Data set [3] relates to arterial blood pressure. Details: species or system male SD rat. Particulars: rat, in vivo. On the procedure: (Lower limbs peripheral circulation disorder model due to hind leg cooling: Model of Raynaud's disease) […] TP-200T, trade name) through a catheter attached to the artery. […] After the operation, at the time that the state became stable, the left hind leg was exposed to a perfused solution at 10° C. to decrease the femoral arterial blood flow. […] In the case of Beraprost Na, continuous injection in an amount of […] was carried out after 30 minutes from cooling. […] The present model is disclosed, for example, in Nishio et al, "Effect of Beraprost Sodium on Peripheral Circulatory Disturbances Induced by Various Stimuli", Arzneim.-Forsch./Drug Res., 39 (II), Nr. 10 (1989), pp. 1229-1234. Note particularly the section "2.4. Sphygmometry in rat hind paw", at page 1230.

Take `CC(=O)Oc1ccccc1C(=O)O` [Compound L, acetyl salicylic acid]: in data set [1], the “% Inhibition of edema” value is listed as -25%, the Edema stood at 55 ± 8% and the edema inhibition activity result is “did not show any edema inhibition activity”.
With `CC#CCC(C)[C@H](O)/C=C/[C@@H]1[C@H]2c3cccc(CCCC(=O)O)c3O[C@H]2C[C@H]1O` (some centres unmarked) [Compound J, Beraprost Na, reference compound], the “Femoral Arterial Blood Flow change” value is 1.116 Δ ml/min in data set [2] (0 min (before cooling and administration; 30 min = 0)); 0.252 Δ ml/min in data set [2] (40 min, given at 30 min: A 300 μg/kg i.v., J 0.3 μg/kg/ml continuous injection); 0.304 Δ ml/min in data set [2] (50 min, given at 30 min: A 300 μg/kg i.v., J 0.3 μg/kg/ml continuous injection); 0.368 Δ ml/min in data set [2] (60 min, given at 30 min: A 300 μg/kg i.v., J 0.3 μg/kg/ml continuous injection); 0.436 Δ ml/min in data set [2] (70 min, given at 30 min: A 300 μg/kg i.v., J 0.3 μg/kg/ml continuous injection); 0.372 Δ ml/min in data set [2] (80 min, given at 30 min: A 300 μg/kg i.v., J 0.3 μg/kg/ml continuous injection). In addition, the “Femoral Arterial Blood Flow change” value in data set [2] (90 min, given at 30 min: A 300 μg/kg i.v., J 0.3 μg/kg/ml continuous injection) is 0.344 Δ ml/min. In addition, the “Mean Arterial Pressure change” value in data set [3] is reported as 1.20 Δ mmHg.
On to `Clc1ccccc1CN1CCc2sccc2C1` [Compound K, ticlopidine], for which, in data set [1], the “% Inhibition of edema” value is -9%, the Edema is listed as 48 ± 2% and the edema inhibition activity result is listed as “did not show any edema inhibition activity”.
